For 27 molecules, Ki results are on record in patent US11667649B2, “Heteroaromatic macrocyclic ether chemotherapeutic agents” (Nuvalent, Inc., priority 2020, dated 2023).

Where only a bound is given, the exact number is not on record here.

In one assay the target is T1, ROS1-wt kinase domain (Homo sapiens, UniProt P08922).
T1 construct: TRKA-wt (1 nM, BPS Bio, 40280) kinase domains in buffer; purchased Carna 08-163
Briefly: Biochemical kinase assay, ROS1-wt. The settings on record: 2 mM ATP substrate solution, read-out: Ki^app ROS1-wt. As to the method: (§1) First, 250 nL of compound dissolved in DMSO (100-fold of the desired concentration) was dispensed into a 384-well plate. A 12.5 μL substrate solution containing ATP (2 mM) and fluorogenic phosphorylation substrate AQT0101 (26 μM for ALK and ROS1, AssayQuant) or AQT0104 (26 μM for TRKA, AssayQuant) in buffer (50 mM HEPES pH 7.5, 0.01% Brij-35, 0.5 mM EGTA, 10 mM MgCl2) was added and mixed thoroughly. Then, a 12.5 μL kinase solution containing ALK-wt (1.5 nM, Carna, 08-518), ALK ALK L1196M/G1202R (3 nM, SignalChem, A19-12NG), ROS1-wt (0.6 nM, Carna, 08-163), ROS1-G2032R (0.5 nM, SignalChem, R14-12BG), or TRKA-wt (1 nM, BPS Bio, 40280) kinase domains in buffer ([…] HEPES pH 7.5, 0.01% Brij-35, 2% glycerol, 0.4 mg/mL BSA, 0.5 mM EGTA, and 10 mM MgCl2) was added and mixed thoroughly. The plate was sealed and read by SpectraMax Paradigm at λ=485 nm every 2 minutes for 120 minutes at 30° C. Initial rates of reaction (v) were calculated from the change in fluorescence intensity over time during the initial, linear portion of the reaction. Finally, apparent inhibitory constants (Ki^app) were determined from regression of v and I (inhibitor concentration) to Morrison Equation (E=enzyme concentration): […]

For assay [1], the target named is T2, ALK L1196M/G1202R kinase domain (Homo sapiens, UniProt Q9UM73, G1202R/L1196M).
T2 construct: TRKA-wt (1 nM, BPS Bio, 40280) kinase domains in buffer; purchased SignalChem A19-12NG
In words: Biochemical kinase assay, ALK L1196M/G1202R. The settings on record: 2 mM ATP substrate solution, read-out: Ki^app ALK-L1196M-G1202R. As to the method:
as §1

The target in a further assay is T3, ALK-wt kinase domain (Homo sapiens, UniProt Q9UM73).
T3 construct: TRKA-wt (1 nM, BPS Bio, 40280) kinase domains in buffer; purchased Carna 08-518
In words: Biochemical kinase assay, ALK-wt. The settings on record: 2 mM ATP substrate solution, read-out: Ki^app ALK-wt. As to the method:
as §1

Another assay deals with T4, TRKA-wt kinase domain (Homo sapiens, UniProt P04629).
T4 construct: TRKA-wt (1 nM, BPS Bio, 40280) kinase domains in buffer; purchased BPS Bio 40280
In words: Biochemical kinase assay, TRKA-wt. The settings on record: 2 mM ATP substrate solution, read-out: Ki^app TRKA-wt. As to the method: as §1

The target of assay [2] is T5, ROS1-G2032R kinase domain (Homo sapiens, UniProt P08922, G2032R).
T5 construct: TRKA-wt (1 nM, BPS Bio, 40280) kinase domains in buffer; purchased SignalChem R14-12BG
In words: Biochemical kinase assay, ROS1-G2032R. As to conditions: 2 mM ATP substrate solution, read-out: Ki^app ROS1-G2032R. Here is the method: as §1

Turning to `CCn1ncc2c1-c1cnc(N)c(c1)OCc1cc(F)ccc1-c1nn(C)cc1C2` [Compound 49], the Ki at ROS1-wt kinase domain was below 50 nM; in assay [1], 50 to 500 nM; at ALK-wt kinase domain, below 50 nM; on TRKA-wt kinase domain it was above 500 nM; in assay [2], 50 to 500 nM.
Consider `CCc1ncn2c1-c1cnc(N)c(c1)O[C@H](C)c1cc(F)ccc1-c1nn(C)cc1C2` [Compound 50], for which the Ki (at ROS1-wt kinase domain; in assay [1]; on ALK-wt kinase domain; on TRKA-wt kinase domain; in assay [2]) was below 50 nM each time.
As for `CCn1ncc2c1-c1cnc(N)c(c1)O[C@H](C)c1cc(F)ccc1-n1nc(C(F)(F)F)cc1C2` [Compound 52], the Ki on ROS1-wt kinase domain was below 50 nM; in assay [1], below 50 nM; on ALK-wt kinase domain, below 50 nM; at TRKA-wt kinase domain, 50 to 500 nM; in assay [2], below 50 nM.
For the molecule `Cc1nn(CC2CC2)c2c1Cc1cn(C)nc1-c1ccc(F)cc1[C@@H](C)Oc1cc-2cnc1N` [Compound 53], the Ki is below 50 nM on ROS1-wt kinase domain; below 50 nM in assay [1]; below 50 nM at ALK-wt kinase domain; 50 to 500 nM on TRKA-wt kinase domain; below 50 nM in assay [2].
In the case of `Cc1nn(CC2CC2)c2c1Cc1c(nn(C)c1Cl)-c1ccc(F)cc1[C@@H](C)Oc1cc-2cnc1N` [Compound 54], the Ki on ROS1-wt kinase domain was below 50 nM; in assay [1], below 50 nM; at ALK-wt kinase domain, below 50 nM; at TRKA-wt kinase domain it was above 500 nM; in assay [2], below 50 nM.
On to `CCc1nn(C)c2c1-c1cnc(N)c(c1)OCc1cc(F)ccc1-n1nc(C)cc1C2` [Compound 55], for which the Ki on ROS1-wt kinase domain is below 50 nM; in assay [1] it was below 50 nM; at ALK-wt kinase domain, below 50 nM; on TRKA-wt kinase domain it was 50 to 500 nM; in assay [2], below 50 nM.
`C[C@H]1Oc2cc(cnc2N)-c2c(C#N)ncn2Cc2ccnn2-c2ccc(F)cc21` [Compound 58]: the Ki at ROS1-wt kinase domain is below 50 nM; in assay [1], below 50 nM; at ALK-wt kinase domain, below 50 nM; on TRKA-wt kinase domain it was above 500 nM; in assay [2] it was below 50 nM.
For `CC1Oc2cc(cnc2N)-c2c(nn(C)c2C#N)Cc2cnccc2-c2ccc(F)cc21` (stereo not drawn) [Compound 59], the Ki is below 50 nM on ROS1-wt kinase domain; above 500 nM in assay [1]; below 50 nM at ALK-wt kinase domain; 50 to 500 nM on TRKA-wt kinase domain; 50 to 500 nM in assay [2].
Turning to `CC1Oc2cc(cnc2N)-c2c(C#N)cnn2Cc2cnn(C)c2-c2ccc(F)cc21` (stereo not drawn) [Compound 60], the Ki at ROS1-wt kinase domain is below 50 nM; in assay [1], 50 to 500 nM; at ALK-wt kinase domain, below 50 nM; on TRKA-wt kinase domain, above 500 nM; in assay [2] it was 50 to 500 nM.
As for `Cc1cc2n(n1)-c1ccc(F)cc1[C@@H](C)Oc1cc(cnc1N)-c1c(C#N)ncn1C2` [Compound 61], the Ki on ROS1-wt kinase domain was 50 to 500 nM; in assay [1], above 500 nM; on ALK-wt kinase domain, 50 to 500 nM; at TRKA-wt kinase domain, above 500 nM; in assay [2], above 500 nM.
Consider `C[C@H]1Oc2cc(cnc2N)-c2c(C#N)cnn2Cc2ccnn2-c2ccc(F)cc21` [Compound 62], for which the Ki on ROS1-wt kinase domain was below 50 nM; in assay [1], below 50 nM; at ALK-wt kinase domain, below 50 nM; on TRKA-wt kinase domain it was above 500 nM; in assay [2], 50 to 500 nM.
Regarding `C[C@H]1Oc2cc(cnc2N)-c2c(C#N)ncn2Cc2cc(F)cnc2-c2ccc(F)cc21` [Compound 63], the Ki is below 50 nM at ROS1-wt kinase domain; below 50 nM in assay [1]; below 50 nM at ALK-wt kinase domain; above 500 nM at TRKA-wt kinase domain; below 50 nM in assay [2].
As to `C[C@H]1Oc2cc(cnc2N)-c2c(C#N)ncn2Cc2scnc2-c2ccc(F)cc21` [Compound 64], the Ki was below 50 nM on ROS1-wt kinase domain; below 50 nM in assay [1]; below 50 nM on ALK-wt kinase domain; above 500 nM on TRKA-wt kinase domain; below 50 nM in assay [2].
For `Cc1nc2c(s1)Cn1cnc(C#N)c1-c1cnc(N)c(c1)O[C@H](C)c1cc(F)ccc1-2` [Compound 65], the Ki is below 50 nM on ROS1-wt kinase domain; below 50 nM in assay [1]; below 50 nM on ALK-wt kinase domain; above 500 nM on TRKA-wt kinase domain; below 50 nM in assay [2].
Consider `Cc1nc2c(s1)Cn1ncc(C#N)c1-c1cnc(N)c(c1)O[C@H](C)c1cc(F)ccc1-2` [Compound 67], for which the Ki on ROS1-wt kinase domain is below 50 nM; in assay [1] it was below 50 nM; at ALK-wt kinase domain it was below 50 nM; at TRKA-wt kinase domain, 50 to 500 nM; in assay [2], below 50 nM.
As to `Cc1nc2c(s1)Cn1ncc(C(F)F)c1-c1cnc(N)c(c1)O[C@H](C)c1cc(F)ccc1-2` [Compound 68], the Ki at ROS1-wt kinase domain was below 50 nM; in assay [1] it was below 50 nM; at ALK-wt kinase domain, below 50 nM; at TRKA-wt kinase domain it was 50 to 500 nM; in assay [2], below 50 nM.
With `CCn1ncc2c1-c1cnc(N)c(c1)OCc1cc(F)ccc1-n1nc(C)cc1C2` [Compound 69], the Ki was below 50 nM at ROS1-wt kinase domain; below 50 nM in assay [1]; below 50 nM on ALK-wt kinase domain; 50 to 500 nM on TRKA-wt kinase domain; below 50 nM in assay [2].
On to `CCn1nnc2c1-c1cnc(N)c(c1)O[C@H](C)c1cc(F)ccc1-c1ncc(F)cc1C2` [Compound 70], for which the Ki at ROS1-wt kinase domain is below 50 nM; in assay [1] it was below 50 nM; at ALK-wt kinase domain it was below 50 nM; at TRKA-wt kinase domain it was 50 to 500 nM; in assay [2] it was below 50 nM.
On to `CCn1ncc2c1-c1cnc(N)c(c1)O[C@H](C)c1cc(F)ccc1-n1nc(F)cc1C2` [Compound 71], for which the Ki (on ROS1-wt kinase domain; in assay [1]; at ALK-wt kinase domain; at TRKA-wt kinase domain; in assay [2]) was below 50 nM each time.
`Cc1nc2c(s1)Cc1cnn(C(F)F)c1-c1cnc(N)c(c1)O[C@H](C)c1cc(F)ccc1-2` [Compound 72]: the Ki on ROS1-wt kinase domain was below 50 nM; in assay [1], below 50 nM; on ALK-wt kinase domain, below 50 nM; at TRKA-wt kinase domain it was 50 to 500 nM; in assay [2], below 50 nM.
As to `CCn1nc(Cl)c2c1-c1cnc(N)c(c1)O[C@H](C)c1cc(F)ccc1-c1nn(C)cc1C2` [Compound 73], the Ki on ROS1-wt kinase domain was below 50 nM; in assay [1], below 50 nM; on ALK-wt kinase domain it was below 50 nM; at TRKA-wt kinase domain it was 50 to 500 nM; in assay [2], below 50 nM.
For the molecule `CCn1ncc2c1-c1cnc(N)c(c1)O[C@H](C)c1cc(F)ccc1-n1nc(Cl)cc1C2` [Compound 74], the Ki (on ROS1-wt kinase domain; in assay [1]; on ALK-wt kinase domain; at TRKA-wt kinase domain; in assay [2]) was below 50 nM each time.
With `CCn1ncc2c1-c1cnc(N)c(c1)OCc1cc(F)ccc1-n1nc(Cl)cc1C2` [Compound 75], the Ki on ROS1-wt kinase domain was below 50 nM; in assay [1], below 50 nM; on ALK-wt kinase domain it was below 50 nM; on TRKA-wt kinase domain, 50 to 500 nM; in assay [2] it was below 50 nM.
`CCn1nc(Cl)c2c1-c1cnc(N)c(c1)O[C@H](C)c1cc(F)ccc1-n1nc(C)cc1C2` [Compound 76]: the Ki (at ROS1-wt kinase domain; in assay [1]; on ALK-wt kinase domain; at TRKA-wt kinase domain; in assay [2]) was below 50 nM throughout.
As to `CCn1ncc2c1-c1cnc(N)c(c1)O[C@H](C)c1cc(F)ccc1-c1ncoc1C2` [Compound 77], the Ki on ROS1-wt kinase domain was below 50 nM; in assay [1], below 50 nM; at ALK-wt kinase domain, below 50 nM; on TRKA-wt kinase domain, 50 to 500 nM; in assay [2], below 50 nM.
For the molecule `CCn1nnc2c1-c1cnc(N)c(c1)O[C@H](C)c1cc(F)ccc1-c1nc(C)sc1C2` [Compound 78], the Ki on ROS1-wt kinase domain was below 50 nM; in assay [1], below 50 nM; at ALK-wt kinase domain, below 50 nM; on TRKA-wt kinase domain, 50 to 500 nM; in assay [2], below 50 nM.
On to `Cc1nn(CC(F)F)c2c1Cc1cn(C)nc1-c1ccc(F)cc1[C@@H](C)Oc1cc-2cnc1N` [Compound 79], for which the Ki at ROS1-wt kinase domain was below 50 nM; in assay [1], below 50 nM; on ALK-wt kinase domain, below 50 nM; on TRKA-wt kinase domain it was above 500 nM; in assay [2], below 50 nM.
